In the supplement of paper PMC10307832:

Assays:
Assay in all cases: relative viability (nuclei count vs DMSO), 5 days (fraction); higher = more cells survive
Selisistat + Palbociclib = compound: C1CC(C2=C(C1)C3=C(N2)C=CC(=C3)Cl)C(=O)N [Selisistat] + CC(=O)c1c(C)c2cnc(Nc3ccc(N4CCNCC4)cn3)nc2n(C2CCCC2)c1=O [Palbociclib] (partner 0.5 µM)
Procedure, shortened: (§1)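 Lung cancer cell lines in 1536-well plates got either a single drug or a fixed anchor-drug dose together with five library-drug doses (not always all listed) in √10 steps, by pin tool, on the day after seeding. Nuclei were counted after 5 days, and relative viability is the treated-to-vehicle ratio of nuclei counts. Values are medians of duplicate plates.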

Selisistat + Pemetrexed = compound: C1CC(C2=C(C1)C3=C(N2)C=CC(=C3)Cl)C(=O)N [Selisistat] + Nc1nc2[nH]cc(CCc3ccc(C(=O)N[C@@H](CCC(=O)O)C(=O)O)cc3)c2c(=O)[nH]1 [Pemetrexed] (partner 0.2 µM)
Procedure, shortened: as §1

Serdemetan + Alpelisib = compound: c1ccc2c(CCNc3ccc(Nc4ccncc4)cc3)c[nH]c2c1 [Serdemetan] + Cc1nc(NC(=O)N2CCC[C@H]2C(N)=O)sc1-c1ccnc(C(C)(C)C(F)(F)F)c1 [Alpelisib] (partner 2 µM)
Procedure, shortened: as §1

Serdemetan + Decitabine = compound: c1ccc2c(CCNc3ccc(Nc4ccncc4)cc3)c[nH]c2c1 [Serdemetan] + Nc1ncn([C@H]2C[C@H](O)[C@@H](CO)O2)c(=O)n1 [Decitabine] (partner 2 µM)
Procedure, shortened: as §1

| Cell Line | relative viability (Selisistat + Palbociclib; first compound 0.4 µM) | relative viability (Selisistat + Palbociclib; first compound 1.265 µM) | relative viability (Selisistat + Palbociclib; first compound 4 µM) | relative viability (Selisistat + Palbociclib; first compound 12.65 µM) | relative viability (Selisistat + Palbociclib; first compound 40 µM) | relative viability (Selisistat + Pemetrexed; first compound 0.4 µM) | relative viability (Selisistat + Pemetrexed; first compound 1.265 µM) | relative viability (Selisistat + Pemetrexed; first compound 4 µM) | relative viability (Selisistat + Pemetrexed; first compound 12.65 µM) | relative viability (Selisistat + Pemetrexed; first compound 40 µM) | relative viability (Serdemetan + Alpelisib; first compound 0.04 µM) | relative viability (Serdemetan + Alpelisib; first compound 0.1265 µM) | relative viability (Serdemetan + Alpelisib; first compound 0.4 µM) | relative viability (Serdemetan + Alpelisib; first compound 1.265 µM) | relative viability (Serdemetan + Alpelisib; first compound 4 µM) | relative viability (Serdemetan + Decitabine; first compound 0.04 µM) | relative viability (Serdemetan + Decitabine; first compound 0.1265 µM) | relative viability (Serdemetan + Decitabine; first compound 0.4 µM) | relative viability (Serdemetan + Decitabine; first compound 1.265 µM) | relative viability (Serdemetan + Decitabine; first compound 4 µM) |
| --- | --- | --- | --- | --- | --- | --- | --- | --- | --- | --- | --- | --- | --- | --- | --- | --- | --- | --- | --- | --- |
| NCI-H2023 | 0.34 | 0.354 | 0.401 | 0.378 | 0.353 | 0.239 | 0.259 | 0.258 | 0.203 | 0.236 | 0.613 | 0.651 | 0.521 | 0.375 | 0.266 | 0.206 | 0.21 | 0.225 | 0.135 | 0.138 |
| COR-L 105 | 0.427 | 0.378 | 0.397 | 0.419 | 0.437 | 1.16 | 1.07 | 1.16 | 0.869 | 1.1 | 0.906 | 1.08 | 0.922 | 1.04 | 0.865 | 0.65 | 0.646 | 0.574 | 0.52 | 0.626 |
| RERF-LC-KJ | 1.15 | 1.02 | 0.995 | 0.909 | 0.952 | 0.482 | 0.466 | 0.467 | 0.466 | 0.468 | 0.804 | 0.832 | 0.777 | 0.801 | 0.643 | 0.785 | 0.636 | 0.722 | 0.489 | 0.605 |
| LXF-289 | 0.628 | 0.639 | 0.55 | 0.557 | 0.619 | 0.925 | 1.04 | 0.83 | 0.841 | 0.959 | 1.02 | 1.01 | 0.937 | 0.844 | 0.844 | 0.354 | 0.357 | 0.349 | 0.268 | 0.337 |
| PC-14 | 0.513 | 0.498 | 0.528 | 0.53 | 0.489 | 0.116 | 0.152 | 0.123 | 0.139 | 0.137 | 0.954 | 0.93 | 0.784 | 0.852 | 0.825 | 0.186 | 0.202 |  | 0.125 | 0.138 |
| NCI-H650 | 0.379 | 0.319 | 0.443 | 0.387 | 0.339 | 0.961 | 0.907 | 1.06 | 0.921 | 1.18 | 0.965 | 1.15 | 1.11 | 0.92 | 0.67 | 0.321 | 0.331 | 0.321 | 0.24 | 0.262 |
| NCI-H1666 | 0.658 | 0.613 | 0.642 | 0.659 | 0.611 | 0.948 | 0.803 | 0.871 | 0.822 | 0.853 | 1.22 | 1 | 0.891 | 0.794 | 0.807 | 0.798 | 0.657 | 0.652 | 0.645 | 0.697 |
| NCI-H2085 | 0.486 | 0.476 | 0.433 | 0.522 | 0.496 | 1.06 | 0.967 | 0.622 | 0.939 | 0.877 | 0.952 | 0.911 | 0.801 | 0.573 | 0.585 | 0.541 | 0.582 | 0.485 | 0.324 | 0.374 |
| NCI-H1734 | 0.366 | 0.37 | 0.353 | 0.379 | 0.369 | 0.357 | 0.388 | 0.401 | 0.434 | 0.391 | 0.61 |  | 0.259 | 0.122 | 0.178 | 0.44 | 0.26 | 0.226 | 0.111 | 0.188 |
| NCI-H2126 | 0.377 | 0.369 | 0.336 | 0.362 | 0.37 | 0.716 | 0.653 | 0.588 | 0.68 | 0.655 | 0.721 | 0.753 | 0.741 | 0.575 | 0.762 | 0.623 | 0.583 | 0.612 | 0.451 | 0.519 |
| EMC-BAC-2 | 0.523 | 0.525 | 0.586 | 0.282 | 0.319 | 0.406 | 0.422 | 0.522 | 0.331 | 0.352 | 0.727 | 0.712 | 0.727 | 0.662 | 0.548 | 0.882 | 0.912 | 0.972 | 0.879 | 0.823 |
| NCI-H1993 | 0.703 | 0.67 |  | 0.623 | 0.676 | 0.581 | 0.711 |  | 0.554 | 0.592 | 0.715 | 0.802 | 0.621 |  | 0.67 | 0.696 | 0.593 | 0.542 | 0.577 | 0.56 |
| NCI-H520 | 0.224 | 0.208 | 0.198 | 0.274 | 0.236 | 0.776 | 0.676 | 0.647 | 0.668 | 0.644 | 0.729 | 0.807 | 1.09 | 0.726 | 0.786 | 0.44 | 0.481 | 0.57 | 0.4 | 0.335 |
| NCI-H647 | 0.415 | 0.331 | 0.398 | 0.433 | 0.396 | 0.165 | 0.203 | 0.193 | 0.174 | 0.178 | 1.16 | 1.2 | 1.05 | 0.762 | 0.671 | 0.276 | 0.368 | 0.403 | 0.28 | 0.235 |
| NCI-H1792 | 0.659 | 0.606 |  | 0.581 | 0.596 | 0.696 | 0.633 |  | 0.913 | 0.755 | 0.697 | 0.686 | 0.567 | 0.529 | 0.257 | 0.429 | 0.459 | 0.417 | 0.327 | 0.176 |
| SK-LU-1 | 0.394 | 0.361 | 0.367 | 0.43 | 0.411 | 0.985 | 0.981 | 1.01 | 0.967 | 1.03 | 1.14 | 1.07 | 0.944 | 0.758 | 0.669 | 0.581 | 0.58 | 0.691 | 0.393 | 0.593 |
| NCI-H2009 | 0.202 | 0.184 | 0.136 | 0.202 | 0.191 | 1.13 | 1.07 | 1.06 | 1.04 | 1.04 | 1.18 | 1.11 | 1.08 | 1.12 | 0.964 | 0.373 | 0.37 | 0.431 | 0.328 | 0.345 |
| LOU-NH91 | 0.594 | 0.526 | 0.585 | 0.519 | 0.552 | 0.329 | 0.339 | 0.42 | 0.395 | 0.459 | 0.741 | 0.677 |  | 0.761 | 0.679 | 0.813 | 0.845 |  |  | 0.872 |
| NCI-H2405 | 0.534 | 0.536 |  | 0.578 | 0.502 | 0.984 | 1.04 |  | 1.01 | 1.04 | 0.881 | 0.918 | 0.826 | 0.772 | 0.543 | 0.707 | 0.766 | 0.756 | 0.674 | 0.625 |
| LCLC-97TM1 | 0.234 | 0.256 |  | 0.214 | 0.249 | 0.153 | 0.177 |  | 0.155 | 0.206 | 0.258 | 0.203 | 0.241 | 0.225 | 0.202 | 0.232 | 0.213 | 0.239 | 0.175 | 0.165 |
| H3255 | 0.348 | 0.295 | 0.33 | 0.303 | 0.32 | 0.556 | 0.556 | 0.528 | 0.552 | 0.526 | 0.657 | 0.693 | 0.585 | 0.683 | 0.525 | 0.546 | 0.588 |  | 0.569 | 0.42 |
| SK-MES-1 | 0.34 | 0.347 | 0.309 | 0.314 | 0.378 | 1.01 | 0.957 | 0.917 | 0.828 | 1.01 | 0.836 | 0.792 | 0.74 | 0.834 | 0.526 | 0.327 | 0.368 | 0.397 | 0.33 | 0.281 |
| NCI-H1437 | 0.325 | 0.282 | 0.227 | 0.213 | 0.242 | 0.321 | 0.328 | 0.321 | 0.28 | 0.299 | 0.936 | 1.01 | 0.896 | 0.807 | 0.802 | 0.511 | 0.5 | 0.582 | 0.492 | 0.427 |
| LU99A | 0.459 | 0.367 | 0.44 | 0.445 | 0.399 | 0.169 | 0.176 | 0.21 | 0.184 | 0.163 | 0.516 | 0.576 | 0.342 | 0.175 | 0.17 | 0.943 | 0.84 | 0.775 | 0.419 | 0.277 |
| HCC-827 | 0.483 | 0.475 | 0.534 | 0.439 | 0.527 | 0.258 | 0.266 | 0.266 | 0.256 | 0.251 | 0.924 | 0.934 |  | 0.723 | 0.6 | 0.371 | 0.243 |  | 0.263 | 0.305 |
| LK-2 | 0.797 | 0.686 | 0.766 | 0.694 | 0.566 | 0.271 | 0.32 | 0.232 | 0.265 | 0.252 | 1.1 | 1.28 | 1.25 | 1.06 | 0.652 | 0.37 | 0.29 | 0.274 | 0.223 | 0.283 |
| HCC-366 | 0.414 | 0.447 | 0.37 | 0.355 | 0.377 | 0.136 | 0.184 | 0.193 | 0.146 | 0.164 | 0.403 | 0.434 | 0.208 | 0.0495 | 0.0462 | 0.209 | 0.154 | 0.0922 | 0.0502 | 0.0773 |
